These are literature values, as cited in article PMC5051147, “Ester Hydrolysis Differentially Reduces Aconitine-Induced Anti-hypersensitivity and Acute Neurotoxicity: Involvement of Spinal Microglial Dynorphin Expression and Implications for Aconitum Processing” (Frontiers in Pharmacology, 2016).

Data set [1] concerns acetic acid and formalin tests. The arrangement: method as in Yu et al., 1996. Conditions: systemic; ref Yu et al., 1996; cited from earlier work.
On the set-up of data set [2]: method as in Zheng et al., 1994. Conditions: intracerebroventricular injection; ref Zheng et al., 1994; cited from earlier work.
The next data set deals with mice. The arrangement: method as in Zheng et al., 1994. Conditions: subcutaneous, ref Zheng et al., 1994; cited from earlier work.
For a further data set, the system named is rats. The arrangement: method as in Zheng et al., 1994. Conditions: subcutaneous, ref Zheng et al., 1994; cited from earlier work.
The test system of data set [3] is heat hyperalgesia in spinal L5/L6 nerve–ligated neuropathic rats. The arrangement: method as in Li et al., 2016. Conditions: ref Li et al., 2016; cited from earlier work.
The test system of data set [4] is mechanical allodynia in spinal L5/L6 nerve–ligated neuropathic rats. The arrangement: method as in Li et al., 2016. Conditions: ref Li et al., 2016; cited from earlier work.
Data set [5] relates to dynorphin A expression in spinal microglia. As to conditions: ref Li et al., 2016, cited from earlier work.

In the case of `CCN1C[C@]2(COC)[C@H](O)C[C@H](OC)[C@]34C1[C@H]([C@H](OC)[C@H]23)[C@@]1(OC(C)=O)C[C@H](OC)[C@@]2(O)C[C@@H]4[C@@H]1[C@H]2OC(=O)c1ccc(OC)cc1` [yunaconitine], the “Antinociception compared with analogues” value in data set [1] was “greater antinociception than bulleyaconitine A and 3-acetylaconitine”.

On to `CCN1C[C@]2(COC)[C@H](OC(C)=O)C[C@H](OC)C34C1C([C@H](OC)[C@@H]32)[C@]1(O)[C@@H]2[C@H]4C[C@@](O)([C@@H]2OC(=O)c2ccccc2)[C@@H](OC)[C@@H]1OC(C)=O` [3,15-diacetylbenzoylaconine], for which the “Therapeutic index relative to 3-acetylaconitine” value in data set [2] is given as “three-fold higher”. Besides, the results for the “ED50 relative to 3-acetylaconitine (times greater)” value with mice and in the data set with rats were 12–16 times and 25–30 times, respectively.

Take bulleyaconitine A: the “ED50, block of heat hyperalgesia” value in data set [3] is on record as 201 pmol. In data set [4], the “ED50, block of mechanical allodynia” value was 180 pmol. Also, the EC50 in data set [5] (read-out: EC50, stimulation of microglial dynorphin A expression) is 45 nM. The “Effect on dynorphin A level / expression” value in data set [5] (spinal cord and cultured primary spinal microglia) is recorded as “significantly increased the dynorphin A level”.

As a reminder, the EC50 is the concentration at which the effect is half-maximal.
